For one molecule, inhibition results are on record in paper PMC6934184, “Selective DNA-PKcs inhibition extends the therapeutic index of localized radiotherapy and chemotherapy” (The Journal of Clinical Investigation, 2019).

Molecules are shown by their SMILES.

In this test the target is T1, MAPKAPK2 (Homo sapiens, UniProt P49137).
T1 construct: purchased Thermo Fisher Scientific (Life Technologies) SelectScreen
The test can be described thus: SelectScreen Z'LYTE. Format: biochemical. The procedure, abridged: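 SelectScreen broad panel; activity (Z'LYTE, Adapta) plus binding formats. ATP: Km app for CSF1R Z'LYTE; 10 for CAMK1 Adapta. Readout = % per kinase.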

T1 sequence (P49137 whole entry): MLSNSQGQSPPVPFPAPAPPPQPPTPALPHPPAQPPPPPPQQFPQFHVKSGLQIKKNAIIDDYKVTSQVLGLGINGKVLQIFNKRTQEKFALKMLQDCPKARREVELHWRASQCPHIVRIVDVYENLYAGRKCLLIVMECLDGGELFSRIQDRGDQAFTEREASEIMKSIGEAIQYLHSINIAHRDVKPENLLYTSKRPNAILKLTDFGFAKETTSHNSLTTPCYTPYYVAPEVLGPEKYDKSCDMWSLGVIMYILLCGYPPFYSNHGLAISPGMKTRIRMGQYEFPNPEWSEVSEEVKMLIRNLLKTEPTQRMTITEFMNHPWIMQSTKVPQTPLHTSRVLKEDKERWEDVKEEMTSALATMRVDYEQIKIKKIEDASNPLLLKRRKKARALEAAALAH

With `CN(C(=O)CN1CCOCC1)c1ccc2sc3c(-c4cccc5c(=O)cc(N6CC7CCC(C6)O7)oc45)cccc3c2c1` [NU5455], the inhibition at 1 µM was -3.1%.

The inhibition is the change of the read-out against control, counted positive when it falls.
